Earlier results, collected in patent publication US20200325234A1, “IMMUNE-BASED TREATMENT OF KRAS-VARIANT CANCER PATIENTS” (MIRA DX, INC., priority 2016, published 2020).
Read-outs that look alike come from different tables or passages of the source.

Test system: KRAS-variant patients
[1] = KRAS-variant patients with non-small cell lung cancer (NSCLC)

Row | Compound | response to therapy [1] | response to therapy (KRAS-variant patients with ovarian or head and neck cancer)
1 | CNC(=O)c1cc(Oc2ccc(NC(=O)Nc3ccc(Cl)c(C(F)(F)F)c3)cc2)ccn1 [sorafenib] | sensitivity | –
2 | C#Cc1cccc(Nc2ncnc3cc(OCCOC)c(OCCOC)cc23)c1 [erlotonib] | resistance | –
3 | N.N.[Cl][Pt][Cl] [cisplatin] | – | resistance
